From patent publication US9403801B2 (Calitor Sciences, LLC, priority 2014, dated 2016)

Experiments:
[1] = Compound stability in human liver microsomes; type: in vitro ADME; conditions: for half-life at 5 μM: compound 5 μM, NADPH 1.0 mM, 37° C.; for CLint scaled at 5 μM: in vivo CLint extrapolated
Method in brief: (§1)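 Microsomes 0.5 mg protein/mL; cpd 5 μM; NADPH 1.0 mM; 100 mM phosphate pH 7.4; DMSO 0.05%; 37° C; duplicates. Timepoints 0–60 min, acetonitrile stop, LC/MS/MS. Data as % of zero-time; CLint extrapolated.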

[2] = Compound stability in rat liver microsomes; type: in vitro ADME
Method in brief: as §1

JAK1 (h) = JAK1 (h) (Homo sapiens (Human), UniProt P23458); assay: JAK1 kinase assay (33P-ATP filter binding, Millipore); type: biochemical
Method in brief: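 Radiometric assay of γ-33P-ATP incorporation into plate-immobilised MBP; kinase buffer pH 7.6 with 10 mM MgCl2, 10 μM unlabelled ATP typical, enzyme 10 or 20 nM final, 1% DMSO. Reactions ran 1 h at room temperature before scintillation counting. IC50 from 10-point half-log dilution curve, duplicates.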

JAK2 (h) = JAK2 (h) (Homo sapiens (Human), UniProt O60674); assay: JAK2 kinase assay (33P-ATP filter binding, Millipore); type: biochemical
Protocol: (§2) Kinase assays can be performed by measurement of incorporation of γ-^33P ATP into immobilized myelin basic protein (MBP). High binding white 384 well plates (Greiner) are coated with MBP (Sigma #M−1891) by incubation of 60 μL/well of 20 μg/mL MBP in Tris-buffered saline (TBS; 50 mM Tris pH 8.0, 138 mM NaCl, 2.7 mM KCl) for 24 h at 4° C. Plates are washed 3× with 100 μL TBS. Kinase reactions are carried out in a total volume of 34 μL in kinase buffer (5 mM Hepes pH 7.6, 15 mM NaCl, 0.01% bovine gamma globulin (Sigma #I-5506), 10 mM MgCl2, 1 mM DTT, 0.02% TritonX-100). Compound dilutions are performed in DMSO and added to assay wells to a final DMSO concentration of 1%. Each data point is measured in duplicate, and at least two duplicate assays are performed for each individual compound determination. Enzyme is added to final concentrations of 10 nM or 20 nM, for example. A mixture of unlabeled ATP and γ-^33P ATP is added to start the reaction (2×10^6 cpm of γ-^33P ATP per well (3000 Ci/mmole) and 10 μM unlabeled ATP, typically. The reactions are carried out for 1 h at room temperature with shaking. Plates are washed 7× with TBS, followed by the addition of 50 μL/well scintillation fluid (Wallac). Plates are read using a Wallac Trilux counter. This is only one format of such assays; various other formats are possible, as known to one skilled in the art.
(§3) The above assay procedure can be used to determine the IC50 for inhibition and/or the inhibition constant, Ki. The IC50 is defined as the concentration of compound required to reduce the enzyme activity by 50% under the condition of the assay. The IC50 value is estimated by preparing a 10 point curve using a 1/2 log dilution series (for example, a typical curve may be prepared using the following compound concentrations: 3 μM, 1 μM, 0.3 μM, 0.1 μM, 0.03 μM, 0.01 μM, 0.003 μM, 0.001 μM, 0.0003 μM and 0 μM).
(§4) The kinase assays described herein were performed at Millipore UK Ltd, Dundee Technology Park, Dundee DD2 1SW, UK.

JAK3 (h) = JAK3 (h) (Homo sapiens (Human), UniProt P52333); assay: JAK3 kinase assay (33P-ATP filter binding, Millipore); type: biochemical
Protocol: as §2, §3, §4

TYK2 (h) = TYK2 (h) (Homo sapiens (Human), UniProt P29597); assay: TYK2 kinase assay (33P-ATP filter binding, Millipore); type: biochemical
Protocol: as §2, §3, §4

[3] = Pharmacokinetics after intravenous and oral administration in rats; type: in vivo; conditions: for Clearance (CL) after iv dosing / AUC(0-t) / half-life / Vd: dose 1 mg/kg (Ex. 27: 0.72 mg/kg), iv dosing; for F: oral bioavailability; for AUC(0-t) / half-life / Vd: rat, plasma; for Vd: read-out: Vss
Method in brief: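 Rats were dosed 1 or 2 mg/kg IV or 5 or 10 mg/kg orally, as water solution, HPMC/Tween 80, DMSO/saline, MC suspension or capsule. Plasma was sampled from 0.083 or 0.25 h up to 24 h and quantified by LC/MS/MS in MRM mode with ESI.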

Aurora-A (h) = Aurora-A (h) (Homo sapiens (Human), UniProt O14965); assay: Aurora-A kinase assay (33P-ATP filter binding, Millipore); type: biochemical
Protocol: as §2, with “art. […]” for “art.”

FLT3 (h) = FLT3 (h) (Homo sapiens (Human), UniProt P36888); assay: FLT3 kinase assay (33P-ATP filter binding, Millipore); type: biochemical
Protocol: as §2, with “art. […]” for “art.”

[4] = human, liver microsomes, pH 7.4, Human liver microsomes 0.5 mg protein/mL
[5] = human, liver microsomes, pH 7.4, Human liver microsomes
[6] = pH 7.4, Human liver microsomes 0.5 mg protein/mL
[7] = pH 7.4, Rat liver microsomes 0.5 mg protein/mL, compound 5 μM, NADPH 1.0 mM, 37° C.
[8] = pH 7.4, Rat liver microsomes, in vivo CLint extrapolated
[9] = rat, liver microsomes, pH 7.4, Rat liver microsomes 0.5 mg protein/mL, compound 5 μM, NADPH 1.0 mM, 37° C.
[10] = rat, liver microsomes, pH 7.4, Rat liver microsomes, in vivo CLint extrapolated

Chain of JAK3 (h) (P52333 whole entry): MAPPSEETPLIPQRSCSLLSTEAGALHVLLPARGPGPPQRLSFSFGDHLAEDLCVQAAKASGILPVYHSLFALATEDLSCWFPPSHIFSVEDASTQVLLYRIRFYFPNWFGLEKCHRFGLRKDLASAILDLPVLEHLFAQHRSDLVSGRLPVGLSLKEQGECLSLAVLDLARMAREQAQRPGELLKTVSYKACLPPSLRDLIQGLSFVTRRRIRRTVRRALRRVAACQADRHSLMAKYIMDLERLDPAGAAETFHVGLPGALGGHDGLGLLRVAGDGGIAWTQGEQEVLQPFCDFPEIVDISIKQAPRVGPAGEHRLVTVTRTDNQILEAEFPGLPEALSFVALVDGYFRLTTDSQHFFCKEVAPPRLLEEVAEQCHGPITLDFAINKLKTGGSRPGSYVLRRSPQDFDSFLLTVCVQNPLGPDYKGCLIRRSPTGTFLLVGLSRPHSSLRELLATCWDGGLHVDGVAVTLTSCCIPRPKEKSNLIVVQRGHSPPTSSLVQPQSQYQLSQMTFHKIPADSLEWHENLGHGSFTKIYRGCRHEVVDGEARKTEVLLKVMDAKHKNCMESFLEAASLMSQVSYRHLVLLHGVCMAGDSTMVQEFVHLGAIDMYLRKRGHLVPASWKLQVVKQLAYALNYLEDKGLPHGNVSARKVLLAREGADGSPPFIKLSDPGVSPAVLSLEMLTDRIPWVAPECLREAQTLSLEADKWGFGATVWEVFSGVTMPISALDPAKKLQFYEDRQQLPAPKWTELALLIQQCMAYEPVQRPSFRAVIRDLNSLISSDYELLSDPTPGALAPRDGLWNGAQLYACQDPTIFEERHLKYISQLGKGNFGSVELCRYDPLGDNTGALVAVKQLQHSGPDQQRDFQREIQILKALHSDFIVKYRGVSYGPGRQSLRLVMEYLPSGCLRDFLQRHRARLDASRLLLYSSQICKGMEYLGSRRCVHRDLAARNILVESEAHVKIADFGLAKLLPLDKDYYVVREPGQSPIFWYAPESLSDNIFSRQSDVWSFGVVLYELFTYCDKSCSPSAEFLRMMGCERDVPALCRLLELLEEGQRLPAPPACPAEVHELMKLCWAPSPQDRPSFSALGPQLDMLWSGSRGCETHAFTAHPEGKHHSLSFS
Chain of TYK2 (h) (P29597 whole entry): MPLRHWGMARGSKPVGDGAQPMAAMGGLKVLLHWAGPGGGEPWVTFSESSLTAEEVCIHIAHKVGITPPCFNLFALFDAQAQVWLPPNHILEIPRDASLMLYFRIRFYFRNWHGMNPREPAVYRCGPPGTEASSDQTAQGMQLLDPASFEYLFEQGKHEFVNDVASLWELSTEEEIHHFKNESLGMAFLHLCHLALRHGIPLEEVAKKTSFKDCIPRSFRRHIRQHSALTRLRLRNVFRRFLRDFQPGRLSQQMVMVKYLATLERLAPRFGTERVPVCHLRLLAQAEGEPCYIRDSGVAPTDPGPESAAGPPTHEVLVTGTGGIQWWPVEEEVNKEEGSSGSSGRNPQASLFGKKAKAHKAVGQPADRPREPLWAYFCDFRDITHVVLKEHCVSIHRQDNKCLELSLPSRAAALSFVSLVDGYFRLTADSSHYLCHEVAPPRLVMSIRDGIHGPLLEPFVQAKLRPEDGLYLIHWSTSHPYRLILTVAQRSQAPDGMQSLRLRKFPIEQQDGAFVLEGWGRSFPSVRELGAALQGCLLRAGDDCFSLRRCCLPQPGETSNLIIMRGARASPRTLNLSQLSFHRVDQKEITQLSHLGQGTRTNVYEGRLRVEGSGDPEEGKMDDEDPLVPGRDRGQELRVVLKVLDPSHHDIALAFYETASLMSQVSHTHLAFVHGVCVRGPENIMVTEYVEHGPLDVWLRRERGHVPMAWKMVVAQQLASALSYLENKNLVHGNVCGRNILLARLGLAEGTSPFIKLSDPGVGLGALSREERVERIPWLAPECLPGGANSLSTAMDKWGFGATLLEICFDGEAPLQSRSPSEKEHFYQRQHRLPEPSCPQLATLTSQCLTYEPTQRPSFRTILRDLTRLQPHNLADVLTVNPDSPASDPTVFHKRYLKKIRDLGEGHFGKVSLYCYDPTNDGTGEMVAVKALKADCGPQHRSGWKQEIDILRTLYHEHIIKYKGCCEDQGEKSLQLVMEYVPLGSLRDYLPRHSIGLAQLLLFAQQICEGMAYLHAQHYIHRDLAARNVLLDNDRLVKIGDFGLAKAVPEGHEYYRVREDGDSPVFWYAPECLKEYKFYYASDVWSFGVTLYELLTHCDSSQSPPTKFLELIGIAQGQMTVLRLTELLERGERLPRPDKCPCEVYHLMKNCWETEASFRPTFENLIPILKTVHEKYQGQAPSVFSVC
Chain of JAK2 (h) (O60674 whole entry): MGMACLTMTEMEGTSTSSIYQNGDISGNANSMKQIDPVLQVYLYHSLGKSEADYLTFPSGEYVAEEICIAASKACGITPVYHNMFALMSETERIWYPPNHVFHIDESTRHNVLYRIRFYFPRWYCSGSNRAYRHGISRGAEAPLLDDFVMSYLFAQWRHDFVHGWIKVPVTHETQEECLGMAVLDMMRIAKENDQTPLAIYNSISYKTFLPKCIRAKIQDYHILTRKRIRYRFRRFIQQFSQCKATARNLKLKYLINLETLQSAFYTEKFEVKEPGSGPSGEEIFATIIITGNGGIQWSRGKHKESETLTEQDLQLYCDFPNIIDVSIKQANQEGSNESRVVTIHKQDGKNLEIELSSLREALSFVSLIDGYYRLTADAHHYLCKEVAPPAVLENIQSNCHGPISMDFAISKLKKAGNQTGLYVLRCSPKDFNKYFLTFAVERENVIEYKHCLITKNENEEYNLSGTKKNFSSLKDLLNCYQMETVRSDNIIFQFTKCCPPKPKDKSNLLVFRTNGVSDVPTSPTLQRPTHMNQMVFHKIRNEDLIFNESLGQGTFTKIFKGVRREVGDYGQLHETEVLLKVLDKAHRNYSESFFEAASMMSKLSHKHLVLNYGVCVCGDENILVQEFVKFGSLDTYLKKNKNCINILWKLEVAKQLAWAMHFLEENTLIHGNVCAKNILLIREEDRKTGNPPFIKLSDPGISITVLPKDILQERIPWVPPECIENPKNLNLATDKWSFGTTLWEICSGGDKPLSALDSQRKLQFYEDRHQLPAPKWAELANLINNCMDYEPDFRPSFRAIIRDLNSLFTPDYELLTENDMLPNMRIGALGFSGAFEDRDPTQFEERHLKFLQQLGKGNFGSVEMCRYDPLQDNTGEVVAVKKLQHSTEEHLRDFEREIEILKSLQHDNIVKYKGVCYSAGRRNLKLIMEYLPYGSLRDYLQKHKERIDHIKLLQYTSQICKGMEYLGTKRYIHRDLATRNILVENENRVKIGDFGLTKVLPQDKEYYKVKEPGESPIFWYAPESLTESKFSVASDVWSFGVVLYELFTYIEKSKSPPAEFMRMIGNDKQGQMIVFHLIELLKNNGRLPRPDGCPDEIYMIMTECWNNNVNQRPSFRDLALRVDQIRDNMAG
Chain of JAK1 (h) (P23458 whole entry): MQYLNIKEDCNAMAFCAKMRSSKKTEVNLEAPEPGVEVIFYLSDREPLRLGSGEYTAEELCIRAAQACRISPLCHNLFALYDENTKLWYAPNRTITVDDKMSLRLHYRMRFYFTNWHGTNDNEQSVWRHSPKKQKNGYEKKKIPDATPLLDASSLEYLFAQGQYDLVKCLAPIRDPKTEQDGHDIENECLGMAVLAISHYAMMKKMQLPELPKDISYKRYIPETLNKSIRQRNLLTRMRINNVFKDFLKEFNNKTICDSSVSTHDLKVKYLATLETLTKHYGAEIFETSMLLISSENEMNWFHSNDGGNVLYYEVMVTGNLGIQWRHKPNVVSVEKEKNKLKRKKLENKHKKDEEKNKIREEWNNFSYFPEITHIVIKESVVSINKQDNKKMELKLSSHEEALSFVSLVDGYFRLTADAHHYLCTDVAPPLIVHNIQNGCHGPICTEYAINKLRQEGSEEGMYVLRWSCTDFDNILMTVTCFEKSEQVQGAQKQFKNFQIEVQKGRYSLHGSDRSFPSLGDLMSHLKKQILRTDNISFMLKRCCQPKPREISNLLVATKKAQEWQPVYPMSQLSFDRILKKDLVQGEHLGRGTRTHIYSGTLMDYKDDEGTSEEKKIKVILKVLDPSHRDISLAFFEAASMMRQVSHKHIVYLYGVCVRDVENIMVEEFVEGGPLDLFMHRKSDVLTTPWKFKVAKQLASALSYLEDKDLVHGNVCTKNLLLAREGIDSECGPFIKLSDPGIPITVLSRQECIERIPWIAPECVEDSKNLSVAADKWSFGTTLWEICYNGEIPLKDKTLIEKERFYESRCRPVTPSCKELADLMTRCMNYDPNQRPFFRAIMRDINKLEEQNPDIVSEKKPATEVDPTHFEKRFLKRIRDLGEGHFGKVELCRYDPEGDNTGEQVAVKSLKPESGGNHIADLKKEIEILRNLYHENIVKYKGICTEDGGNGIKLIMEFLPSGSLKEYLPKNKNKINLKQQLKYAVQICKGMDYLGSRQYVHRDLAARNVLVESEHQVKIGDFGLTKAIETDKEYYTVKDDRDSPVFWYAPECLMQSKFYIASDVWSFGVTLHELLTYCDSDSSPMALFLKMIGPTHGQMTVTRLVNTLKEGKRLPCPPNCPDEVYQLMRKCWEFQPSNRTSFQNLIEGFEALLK
Chain of Aurora-A (h) (O14965 whole entry): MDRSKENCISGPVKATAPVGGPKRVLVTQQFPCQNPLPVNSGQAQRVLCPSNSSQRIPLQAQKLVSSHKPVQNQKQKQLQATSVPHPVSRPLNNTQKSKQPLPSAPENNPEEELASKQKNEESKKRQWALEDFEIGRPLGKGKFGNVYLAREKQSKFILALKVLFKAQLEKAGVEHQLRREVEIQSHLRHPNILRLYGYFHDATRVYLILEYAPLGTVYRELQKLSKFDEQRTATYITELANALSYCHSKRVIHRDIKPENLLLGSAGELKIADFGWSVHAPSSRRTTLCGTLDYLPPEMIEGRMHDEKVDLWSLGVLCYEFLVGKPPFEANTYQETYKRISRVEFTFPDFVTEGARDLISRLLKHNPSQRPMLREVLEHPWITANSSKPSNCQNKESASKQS

| IC50 (JAK1 (h)) [nM] | IC50 (JAK2 (h)) [nM] | half-life at 5 μM [1, 6] [min] | CLint scaled at 5 μM ([1]; pH 7.4, Human liver microsomes) [mL/min/kg] | half-life at 5 μM [2, 7] [min] | CLint scaled at 5 μM [2, 8] [mL/min/kg] | Clearance (CL) after iv dosing [3] [mL/min/kg] | F [3] [%] | AUC(0-t) [3] [ng·h/mL] | half-life [3] [min] | Vd [3] [L/kg] | SMILES | half-life at 5 μM [1, 4] [min] | CLint scaled at 5 μM [1, 5] [mL/min/kg] | IC50 (JAK3 (h)) [nM] | IC50 (TYK2 (h)) [nM] | further results |
| --- | --- | --- | --- | --- | --- | --- | --- | --- | --- | --- | --- | --- | --- | --- | --- | --- |
| 1 | 18 | 187 | 9.3 | 12 | 208 | 121 | 39.2 | 143 | 14.4 | 1.75 | Cn1cc(Nc2ncc(Cl)c(NC3CC4CN(C(=O)CC#N)CC4C3)n2)cn1 (stereo not drawn) [Ex. 12, 3-(5-((5-chloro-2-((1-methyl-1H-pyrazol-4-yl)amino)pyrimidin-4-yl)amino)hexahydrocyclopenta[c]pyrrol-2(1H)-yl)-3-oxopropanenitrile] | – | – | 359 | 7 | – |
| 3 | 37 | 202 | 8.6 | 27.2 | 91.4 | 62.8 | 41.3 | 264 | 35.4 | 1.65 | CC(=O)N1CC2CC(Nc3nc(Nc4cnn(C)c4)ncc3Cl)CC2C1 (stereo not drawn) [Ex. 32, 1-(5-((5-chloro-2-((1-methyl-1H-pyrazol-4-yl)amino)pyrimidin-4-yl)amino)hexahydrocyclopenta[c]pyrrol-2(1H)-yl)ethanone] | – | – | – | – | – |

Continued, compound first:

| SMILES | IC50 (JAK1 (h)) [nM] | IC50 (JAK2 (h)) [nM] | half-life at 5 μM [1, 6] [min] | CLint scaled at 5 μM ([1]; pH 7.4, Human liver microsomes) [mL/min/kg] | half-life at 5 μM [2, 7] [min] | CLint scaled at 5 μM [2, 8] [mL/min/kg] | Clearance (CL) after iv dosing [3] [mL/min/kg] | F [3] [%] | AUC(0-t) [3] [ng·h/mL] | half-life [3] [min] | Vd [3] [L/kg] | half-life at 5 μM [1, 4] [min] | CLint scaled at 5 μM [1, 5] [mL/min/kg] | IC50 (JAK3 (h)) [nM] | IC50 (TYK2 (h)) [nM] | further results |
| --- | --- | --- | --- | --- | --- | --- | --- | --- | --- | --- | --- | --- | --- | --- | --- | --- |
| Cn1cc(Nc2ncc(Cl)c(NC3CCC4(CC3)CCN(C(=O)CC#N)C4)n2)cn1 (single isomer, unassigned) [Ex. 14A, 3-(8-((5-chloro-2-((1-methyl-1H-pyrazol-4-yl)amino)pyrimidin-4-yl)amino)-2-azaspiro[4.5]decan-2-yl)-3-oxopropanenitrile] | 0.8 | 5 | – | – | – | – | – | – | – | – | – | 203 | 8.55 | 39 | 1 | T1/2 ([2]; Rat liver microsomes 0.5 mg protein/mL, compound 5 μM, NADPH 1.0 mM, 37° C.): 10.60 min; CLint ([2]; Rat liver microsomes, in vivo CLint extrapolated): 234.31 mL/min/kg |
| CC(=O)N1CCC2(CCC(Nc3nc(Nc4cnn(C)c4)ncc3Cl)CC2)CC1 [Ex. 28, 1-(9-((5-chloro-2-((1-methyl-1H-pyrazol-4-yl)amino)pyrimidin-4-yl)amino)-3-azaspiro[5.5]undecan-3-yl)ethanone] | 0.9 | 4 | – | – | – | – | 71 | 63.6 | 251 | 39 | 3.06 | 268 | 6.49 | 47 | 4 | half-life at 5 μM [2, 9]: 73.6 min; CLint scaled at 5 μM [2, 10]: 33.8 mL/min/kg; IC50 (Aurora-A (h)): 22 nM; IC50 (FLT3 (h)): 16 nM |
| Cn1cc(Nc2ncc(Cl)c(NC3CC4CN(S(C)(=O)=O)CC4C3)n2)cn1 (stereo not drawn) [Ex. 31, 5-chloro-N^2-(1-methyl-1H-pyrazol-4-yl)-N^4-(2-(methylsulfonyl)octahydrocyclopenta[c]pyrrol-5-yl)pyrimidine-2,4-diamine] | 1 | 12 | 67.2 | 25.9 | 13.2 | 188 | 61.2 | 25.7 | 272 | 39.6 | 2.06 | – | – | 178 | 18 | IC50 (Aurora-A (h)): 4 nM; IC50 (FLT3 (h)): 134 nM |
| Cc1cc(Nc2ncc(Cl)c(NC3CCC4(CC3)CCN(C(=O)CC#N)CC4)n2)nn1C [Ex. 37, 3-(9-((5-chloro-2-((1,5-dimethyl-1H-pyrazol-3-yl)amino)pyrimidin-4-yl)amino)-3-azaspiro[5.5]undecan-3-yl)-3-oxopropanenitrile] | 5 | 11 | – | – | – | – | 44.3 | 31.3 | 381 | 71.4 | 2.97 | 56.2 | 30.9 | – | – | half-life at 5 μM [2, 9]: 68.9 min; CLint scaled at 5 μM [2, 10]: 36.1 mL/min/kg |
| Cc1cc(Nc2ncc(Cl)c(NC3CC4CN(C(=O)CC#N)CC4C3)n2)nn1C (stereo not drawn) [Ex. 39, 3-(5-((5-chloro-2-((1,5-dimethyl-1H-pyrazol-3-yl)amino)pyrimidin-4-yl)amino)hexahydrocyclopenta[c]pyrrol-2(1H)-yl)-3-oxopropanenitrile] | 5 | 30 | 127 | 13.7 | 36.9 | 67.3 | 39.8 | 83.1 | 422 | 41.4 | 1.19 | – | – | – | – | – |
